From patent US7846935B2, “Furo[3,2-B]pyrrol-3-one derivatives and their use as cysteinyl proteinase inhibitors” (Amura Therapeutics Limited, priority 2006, dated 2010)
Where two headings read alike, the source gives them in different places.

Tests used:
[1] = Liver microsomal incubations; assay type: in vitro ADME; settings: human liver microsomes, 25 μM, NADPH
Method: All liver microsome incubations were carried out in 50 mM potassium phosphate buffer at pH 7.4, with a final microsomal protein concentration of 0.5 mg/mL. […] In brief, compounds were added to the incubation buffer along with the liver microsomes and incubated at 37° C. for 10 minutes. The reaction was then initiated by the addition of NADPH, previously dissolved in incubation buffer, to give a final concentration of 1 mM and re-incubated at 37° C. Aliquots were removed at 2 and 60 minutes and quenched with an equal volume of cold acetonitrile. After mixing vigorously, the precipitated protein matter was removed by filtration (Multiscreen Solvinert filter plates, Millipore, Bedford, Mass., USA) and the filtrate analysed by reverse phase HPLC with mass spectrometric detection, using single ion monitoring of the [M+H]^+ species. Metabolic turnover was determined by comparison of peak areas from the ion chromatograms of the parent compound at 2 and 60 minutes and expressed as percent remaining at 1 hour.

human osteoclasts [2] = assay: Human osteoclast resorption assay; assay type: cell-based
Method: Bone resorption was studied using a model where human osteoclast precursor cells were cultured on bovine bone slices for 9 days and allowed to differentiate into bone-resorbing osteoclasts. The formed mature osteoclasts were then allowed to resorb bone. The assay was performed by Pharmatest Services Ltd, Itainen Pitkakatu 4C, Turku, Finland. After the culture period, bone collagen degradation products were quantified from the culture medium as an index of bone resorption. Inhibitor compounds were added into the cell cultures after the differentiation period and their effects on the resorbing activity of mature osteoclasts were determined. The studies included a baseline group without added compounds and a positive control group where a potent cathepsin K inhibitor E-64 was added.
Human peripheral blood monocytes were suspended to culture medium and allowed to attach to bovine bone slices. The bone slices were transferred into 96-well tissue culture plates containing culture medium with appropriate amounts of important growth factors favouring osteoclast differentiation, including M-CSF, RANK-ligand and TGF-β. The cells were incubated in a CO2 incubator in humidified atmosphere of 95% air and 5% carbon dioxide at 37° C. At day 7 when osteoclast differentiation was complete, the culture medium was replaced with culture medium containing conditions favouring osteoclast activity. The cell culture was continued for an additional 2 days, during which the formed mature osteoclasts were allowed to resorb bone in the presence of vehicle, control inhibitor (E64) or test compounds. At the end of the culture, bone collagen degradation products released into the culture medium were determined using a commercially available ELISA method (CrossLaps® for culture, Nordic Bioscience, Herlev, Denmark) as an index of bone resorption (see Bagger, Y. Z. et al, J. Bone. Miner. Res. 14 (suppl. 1), S370).

Plasma incubations = assay type: in vitro ADME; settings: 37° C., 25 μM
Method: Aliquots were removed at 2 and 60 minutes and quenched with an equal volume of cold acetonitrile. After mixing vigorously, the precipitated protein matter was removed by filtration (Multiscreen Solvinert filter plates, Millipore, Bedford, Mass., USA) and the filtrate analysed by reverse phase HPLC with mass spectrometric detection, using single ion monitoring of the [M+H]^+ species. Metabolic turnover was determined by comparison of peak areas from the ion chromatograms of the parent compound at 2 and 60 minutes and expressed as percent remaining at 1 hour.

rat osteoclasts = assay: Rat osteoclast resorption assay; assay type: cell-based
Method: Bone resorption was studied using a model where mature osteoclasts derived from rat bone were cultured on bovine bone slices for 3 days and allowed to resorb bone in the presence of inhibitor, positive control (E-64) or vehicle. More specifically, tibia, femori and humeri were removed from 1 day old rat pups. The endosteal surfaces of the bones were scraped with a scapelto release osteoclasts into the culture medium and the osteoclasts were allowed to attach to bovine bone slices. After the culture period, bone collagen degradation products were quantified from the culture medium as an index of bone resorption. The assay was performed by Pharmatest Services Ltd, Itäinen Pitkakatu 4C, Turku, Finland.

LogD determinations = assay type: physicochemical; settings: 1-octanol/PBS; PBS pH 7.4/1-octanol, ion-count method
Method: LogD(PBS) determinations were performed in 96 well microtitre plates using a miniaturised “shake-flask” method. […] The plates were then capped and mixed vigorously for 1 hour on a microtitre plate shaker, after which they were left to stand, allowing the PBS and octanol phases to separate. The PBS layer was analysed by reverse phase HPLC with mass spectrometric detection, using single ion monitoring of the [M+H]^+ species.
Where AUCstd and AUCpbs are the peak areas from the standard and test ion chromatograms respectively.

[3] = biological target: T1, Human recombinant cathepsin K (Homo sapiens, UniProt P43235); assay: In vitro cathepsin Ki inhibition measurements; assay type: biochemical; settings: Table 1, read-out: In vitro Ki (nM) vs Cath K
T1 construct: B. Turk, Josef, Stefan Institute, Ljubljana, Slovenia
T1 sequence (P43235 115-329): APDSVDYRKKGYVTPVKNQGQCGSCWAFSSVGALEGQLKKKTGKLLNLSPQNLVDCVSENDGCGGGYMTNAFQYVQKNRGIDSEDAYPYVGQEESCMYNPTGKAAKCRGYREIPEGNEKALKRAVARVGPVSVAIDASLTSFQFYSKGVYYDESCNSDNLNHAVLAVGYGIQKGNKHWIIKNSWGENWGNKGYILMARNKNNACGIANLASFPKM
Method: Stock solutions of substrate or inhibitor were made up to 10 mM in 100% dimethylsulfoxide (DMSO) (Rathburns, Glasgow, U.K.) and diluted as appropriately required. In all cases the DMSO concentration in the assays was maintained at less than 1% (vol./vol.). The equilibrium inhibition constants (Ki^ss) for each compound were measured under steady-state conditions monitoring enzyme activity as a function of inhibitor concentration. The values were calculated on the assumption of pure competitive behaviour (Cornish-Bowden, A. Fundamentals of enzyme kinetics Portland Press; 1995, 93-128). Human recombinant cathepsin K (0.25 nM final; B. Turk, Josef, Stefan Institute, Ljubljana, Slovenia), was routinely assayed in 100 mM sodium acetate; pH 5.5 containing 1 mM EDTA, 10 mM L-cysteine and 1.8 μM Z-Leu-Arg-AMC ([S]=KM).
The apparent inhibition constant (Ki) for each compound was determined on the basis that inhibition was reversible and occurred by a pure-competitive mechanism. The Ki values were calculated, from the dependence of enzyme activity as a function of inhibitor concentration, by direct regression analysis (Prism v 3.02) using Equation 2 (Cornish-Bowden, A., 1995).
In situations where the apparent dissociation constant (Ki^app) approached the enzyme concentrations, the Ki^app values were calculated using a quadratic solution in the form described by Equation 3 (Morrison, J. F. Trends Biochem. Sci., 7, 102-105, 1982; Morrison, J. F. Biochim. Biophys. Acta, 185, 269-286, 1969; Stone, S. R. and Hofsteenge, J. Biochemistry, 25, 4622-4628, 1986).
Curves were fitted by non-linear regression analysis (Prism) using a fixed value for the enzyme concentration. Equation 4 was used to account for the substrate kinetics, where ‘Ki’ is the inhibition constant, ‘[So]’ is the initial substrate concentration and ‘KM^app’ is the apparent macroscopic binding (Michaelis) constant for the substrate (Morrison, 1982).

human osteoclasts [4] = settings: human osteoclast, literature value; cited from earlier work
[5] = human osteoclast bone resorption, read-out: Cell-based % Inh. @ 1 μM Human
[6] = 1 μM, rat osteoclast bone resorption, read-out: Cell-based % Inh. @ 1 μM Rat
[7] = human osteoclast, read-out: inhibition of human osteoclast activity
[8] = rat osteoclast, 1 μM per table 1, read-out: rat osteoclast data (inhibition)

Compound	HLM % rem. @ 1 h [1]	Human Plasma Stability % rem. @ 1 h (Plasma incubations)	logD (LogD determinations)	Ki [3]	inhibition at 1 µM (human osteoclasts [2]; [5])	inhibition at 1 µM (rat osteoclasts; [6])	inhibition at 1 µM (human osteoclasts [2]; [7])	inhibition at 1 µM (rat osteoclasts; [8])	Cell-based % Inh. @ 1 μM Human (Lit.) (human osteoclasts [4])
CC(C)C[C@H](NC(=O)c1ccc(N2CCN(C)CC2)cc1)C(=O)N1CC[C@H]2OCC(=O)[C@H]21 [EXAMPLE 1, 4-(4-methylpiperazin-1-yl)-N—((S)-4-methyl-1-oxo-1-((3aS,6aR)-3-oxodihydro-2H-furo[3,2-b]pyrrol-4(5H,6H,6aH)-yl)pentan-2-yl)benzamide, reference compound]	95%	95%	–	–	55%	–	–	–	–
CC(C)C[C@H](NC(=O)c1ccc(N2CCN(C(C)C)CC2)cc1)C(=O)N1CC[C@H]2OCC(=O)[C@H]21 [EXAMPLE 4, 4-(4-isopropylpiperazin-1-yl)-N—((S)-4-methyl-1-oxo-1-((3aS,6aR)-3-oxodihydro-2H-furo[3,2-b]pyrrol-4(5H,6H,6aH)-yl)pentan-2-yl)benzamide]	88%	91%	1.21	19 nM	74%	25%	73 to 82%	25%	–
COCCN1CCN(c2ccc(C(=O)N[C@@H](CC(C)C)C(=O)N3CC[C@H]4OCC(=O)[C@H]43)cc2)CC1 [EXAMPLE 5, 4-(4-(2-methoxyethyl)piperazin-1-yl)-N—((S)-4-methyl-1-oxo-1-((3aS,6aR)-3-oxodihydro-2H-furo[3,2-b]pyrrol-4(5H,6H,6aH)-yl)pentan-2-yl)benzamide]	90%	98%	0.9	29 nM	57%	65%	57%	65%	–
COCCN1CCC(c2ccc(C(=O)N[C@@H](CC(C)C)C(=O)N3CC[C@H]4OCC(=O)[C@H]43)cc2)CC1 [EXAMPLE 8, 4-(1-(2-methoxyethyl)piperidin-4-yl)-N—((S)-4-methyl-1-oxo-1-((3aS,6aR)-3-oxodihydro-2H-furo[3,2-b]pyrrol-4(5H,6H,6aH)-yl)pentan-2-yl)benzamide]	88%	98%	0.61	36 nM	23%	52%	23%	52%	–
CC(C)C[C@H](NC(=O)c1ccc(C(C)(C)C)cc1)C(=O)N1CC[C@H]2OCC(=O)[C@H]21 [prior art compound 23, reference compound]	70%	75%	–	–	–	–	–	–	Lit. 60%

The next lines start with results.

HLM % rem. @ 1 h [1]	Human Plasma Stability % rem. @ 1 h (Plasma incubations)	logD (LogD determinations)	Ki [3]	Compound	inhibition at 1 µM (human osteoclasts [2]; [5])	inhibition at 1 µM (rat osteoclasts; [6])	inhibition at 1 µM (human osteoclasts [2]; [7])	inhibition at 1 µM (rat osteoclasts; [8])	Cell-based % Inh. @ 1 μM Human (Lit.) (human osteoclasts [4])
88%	93%	0.74	15 nM	CCN1CCN(c2ccc(C(=O)N[C@@H](CC(C)C)C(=O)N3CC[C@H]4OCC(=O)[C@H]43)cc2)CC1 [EXAMPLE 2, 4-(4-ethylpiperazin-1-yl)-N—((S)-4-methyl-1-oxo-1-((3aS,6aR)-3-oxodihydro-2H-furo[3,2-b]pyrrol-4(5H,6H,6aH)-yl)pentan-2-yl)benzamide]	58%	40%	58%	–	–
83%	89%	1.66	18 nM	CCCN1CCN(c2ccc(C(=O)N[C@@H](CC(C)C)C(=O)N3CC[C@H]4OCC(=O)[C@H]43)cc2)CC1 [EXAMPLE 3, N—((S)-4-methyl-1-oxo-1-((3aS,6aR)-3-oxo-dihydro-2H-furo[3,2-b]pyrrol-4(5H,6H,6aH)-yl)pentan-2-yl)-4-(4-propylpiperazin-1-yl)benzamide]	73%	65%	73 to 82%	65%	–
83%	93%	1.88	4 nM	CC(C)C[C@H](NC(=O)c1ccc(N2CCN(C3CC3)CC2)cc1)C(=O)N1CC[C@H]2OCC(=O)[C@H]21 [EXAMPLE 6, 4-(4-cyclopropylpiperazin-1-yl)-N—((S)-4-methyl-1-oxo-1-((3aS,6aR)-3-oxodihydro-2H-furo[3,2-b]pyrrol-4(5H,6H,6aH)-yl)pentan-2-yl)benzamide]	74%	22%	73 to 82%	22%	–
81%	92%	1.88	3 nM	CC(C)C[C@H](NC(=O)c1ccc(N2CCN(C3CCC3)CC2)cc1)C(=O)N1CC[C@H]2OCC(=O)[C@H]21 [EXAMPLE 7, 4-(1-cyclobutylpiperazin-4-yl)-N—((S)-4-methyl-1-oxo-1-((3aS,6aR)-3-oxodihydro-2H-furo[3,2-b]pyrrol-4(5H,6H,6aH)-yl)pentan-2-yl)benzamide]	82%	40%	73 to 82%	40%	–
82%	93%	1.99	8 nM	CC(C)C[C@H](NC(=O)c1ccc(C2CCN(C3CC3)CC2)cc1)C(=O)N1CC[C@H]2OCC(=O)[C@H]21 [compound 9, 4-(1-cyclopropylpiperidin-4-yl)-N—((S)-4-methyl-1-oxo-1-((3aS,6aR)-3-oxodihydro-2H-furo[3,2-b]pyrrol-4(5H,6H,6aH)-yl)pentan-2-yl)benzamide]	–	–	–	–	–
83%	90%	0.95	5 nM	CC(C)C[C@H](NC(=O)c1ccc(C2CCN(C3CCC3)CC2)cc1)C(=O)N1CC[C@H]2OCC(=O)[C@H]21 [compound 10, 4-(1-cyclobutylpiperidin-4-yl)-N—((S)-4-methyl-1-oxo-1-((3aS,6aR)-3-oxodihydro-2H-furo[3,2-b]pyrrol-4(5H,6H,6aH)-yl)pentan-2-yl)benzamide]	–	–	–	–	–
